Results reported in patent US8197872B2, “Human milk oligosaccharides to promote growth of beneficial gut bacteria” (The Regents of the University of California, priority 2007, dated 2012).

Assays:
[1] = tested on: B. longum bv. longum DJO10A; experiment: FTICR-MS HMO consumption glycoprofiling of bacterial fermentation; assay type: cell-based, Bifidobacterium longum bv. longum; details: 45 hrs
Text: (§1) Bifidobacterium longum bv. infantis ATCC 15697 and B. breve ATCC 15700 were obtained from the American Type Culture Collection (Manassas, Va.), B. longum bv. longum DJO10A was from D. O'Sullivan, University of Minnesota. Cultures were initially propagated in deMan, Rogosa, Sharpe broth (Becton Dickinson, Sparks, Md.) then grown twice on a semi-synthetic MRS medium, devoid of a carbohydrate source (Barrangou et al., Proceedings of the National Academy of Sciences of the United States of America (2003) 100, (15), 8957-8962). This medium was supplemented with 2.0% (w/v) sterile filtered (Millex-GV, 0.22 μm, Millipore, Billerica, Mass.) HMO as the only carbohydrate source. […] Cell growth was measured by assessing optical density at 600 nm with a ND-1000 Spectrophotometer (NanoDrop Technologies, Wilmington, Del.). […]
(§2) All mass spectra were acquired on a HiResESI QFT-hybrid Fourier transform ion cyclotron resonance mass spectrometer with a 9.4 Tesla shielded superconducting magnet (IonSpec Corp., Irvine, Calif.). […] Ion excitation was performed by arbitrary waveform with amplitude of 125.0 V (base-to-peak) and detected by direct broadband mode at a rate of 1 MHz and 512K data points. Each spectrum was recorded with one acquisition scan in the positive ion mode.
(§3) The D/H ratios were calculated using Formula 1 adapted from Xie et al. (Xie et al., Analytical Chemistry (2004) 76, (17), 5186-5197). […]

[2] = tested on: B. breve ATCC 15700; experiment: as above; assay type: cell-based, Bifidobacterium breve; details: 45 hrs
Text: as §1, §2, §3

[3] = tested on: sialidase (EC 3.2.1.18) of B. longum DJO10A; experiment: Glycosyl hydrolase assay, sialidase in cell-free extract; assay type: cell-based; details: cells grown with 1% (w/v) of the substance as sole carbon source
Experimental: (§4) Assayed cells were incubated anaerobically at 37° C. on semi-synthetic MRS medium (Barrangou et al., Proceedings of the National Academy of Sciences of the United States of America (2003) 100: 8957-8962), with 1% (w/v) sterile filtered lactose or HMO as the sole carbon source. Early stationary phase cells were harvested and 200 mg of 0.1 mm diameter glass beads (BioSpec Products, Bartlesville, Okla.) were added to the suspensions which were subjected to two cycles of 45 s at power 6.0 m s^−1 on a FastPrep FP120 cell disruptor (Qbiogene, Morgan Irvine, Calif.). The beads and cell debris were removed by centrifugation. Cell-free extracts were collected and kept temporarily on ice until the start of the enzyme assays. Protein concentrations were determined according to the Bradford method using bovine serum albumin as the standard (Bradford, M. M., Analytical Biochemistry (1976) 72, (1-2), 248-254). Activity of α-L-fucosidase (EC 3.2.1.51) and sialidase (EC 3.2.1.18) were assayed with the fluorogenic substrates, 4-methylumbelliferyl α-L-fucopyranoside and 2′-(4-methylumbelliferyl) α-D-N-acetylneuraminic acid respectively. Fucosidase activity was assayed with a fluorogenic substrate concentration of 1 mM in 0.2 M phosphate-citrate buffer (pH 5.2), while the sialidase assay employed 0.5 mM of substrate mixed in equal volume with 50 μl 0.25 M sodium acetate-acetic acid buffer (pH 4.3). The reaction mixture containing 100 μl of cell-free extract and 100 μL substrate solution were incubated for 1 hr at 37° C. with the reaction stopped with 1.3 mL of 0.17 M glycine-carbonate buffer, pH 9.8. The fluorescence of enzymatically liberated 4-methylumbelliferone was determined in a Bio-Rad VersaFluor fluorometer (Eureka, Calif.) by excitation at 360 nm and emission measured at 460 nm. Serially diluted 4-methylumbelliferone was used to calibrate relative fluorescence units with substrate concentration. The specific activity of the glycosyl hydrolase was expressed as nanomoles of hydrolyzed substrate per milligram of protein per hour. Assays were performed in duplicates and the standard error was reported.

[4] = tested on: sialidase (EC 3.2.1.18) of B. breve ATCC 15700; experiment: as above; assay type: cell-based; details: cells grown with 1% (w/v) of the substance as sole carbon source
Experimental: as §4

[5] = tested on: sialidase (EC 3.2.1.18) of B. infantis ATCC 15697; experiment: as above; assay type: cell-based
Experimental: as §4

[6] = media supplemented with 2.0% (w/v) HMO

Row | SMILES | consumption of the overall detectable HMO pool represented by LNT metabolism ([1]; 2.0% (w/v) HMO) [%] | consumption of the HMO species [1, 6] [%] | consumption of the overall detectable HMO pool represented by LNT metabolism ([2]; 2.0% (w/v) HMO) [%] | consumption of the HMO species [2, 6] [%] | Sialidase [3] [nmol/min/mg protein] | Sialidase [4] [nmol/min/mg protein] | Sialidase ([5]; cells grown with 1% (w/v) of the substance as sole carbon source) [nmol/min/mg protein] | higher sialidase activity of B. longum bv. infantis compared to B. breve ([5]; grown on lactose) [fold] | higher sialidase activity of B. longum bv. infantis compared to B. longum ([5]; grown on lactose) [fold]
1 | CC(=O)N[C@H]1[C@H](O[C@H]2[C@@H](O)[C@@H](CO)O[C@@H](O[C@H]3[C@H](O)[C@@H](O)C(O)O[C@@H]3CO)[C@@H]2O)O[C@H](CO)[C@@H](O)[C@@H]1O[C@@H]1O[C@H](CO)[C@H](O)[C@H](O)[C@H]1O (stereo partly drawn) [lacto-N-tetraose] | 7.3 | 35.2 | 5.1 | 24.4 | – | – | – | – | –
2 | OC[C@H]1O[C@@H](O[C@H]2[C@H](O)[C@@H](O)C(O)O[C@@H]2CO)[C@H](O)[C@@H](O)[C@H]1O (stereo partly drawn) [lactose] | – | – | – | – | 0.65 ± 0.03 | 0.32 ± 0.03 | 10.8 ± 1.0 | 33.7 | 16.6
